# Laboratory results: publication PMC7865276, “Chemical Constituents of the Bulbs of Scilla peruviana and Their Pancreatic Lipase Inhibitory Activity” (International Journal of Molecular Sciences, 2021)
# What was measured:
# pancreatic lipase = test system: pancreatic lipase; parameters: method as in PMID 25389058; settings: cited from earlier work
# [1] = biological target: T1, lipase from porcine pancreas, TYPE II (Sus scrofa, UniProt P00591); assay: pancreatic lipase inhibitory activity (Lipase Kit S, BALB substrate); assay type: biochemical; settings: for pancreatic lipase inhibitory activity (in words): in vitro, 0.45, 0.90 and 4.5 mM
# T1 construct: lipase from porcine pancreas, TYPE II; purchased Sigma-Aldrich; host or cells: porcine pancreas (tissue preparation)
# T1 sequence (P00591 1-450): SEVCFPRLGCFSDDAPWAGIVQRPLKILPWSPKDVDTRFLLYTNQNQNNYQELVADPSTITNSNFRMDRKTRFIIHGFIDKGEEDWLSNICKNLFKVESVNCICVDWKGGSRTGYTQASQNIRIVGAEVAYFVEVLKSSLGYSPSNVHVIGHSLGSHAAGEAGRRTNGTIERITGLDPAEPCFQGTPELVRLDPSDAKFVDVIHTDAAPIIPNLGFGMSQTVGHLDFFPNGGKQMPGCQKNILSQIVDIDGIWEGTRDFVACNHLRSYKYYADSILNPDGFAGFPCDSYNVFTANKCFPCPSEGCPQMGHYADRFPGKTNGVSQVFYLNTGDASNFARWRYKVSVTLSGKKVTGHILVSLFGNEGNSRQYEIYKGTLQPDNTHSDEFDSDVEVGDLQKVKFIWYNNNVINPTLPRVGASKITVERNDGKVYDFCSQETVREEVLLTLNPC
# Protocol: The pancreatic lipase activity of each test sample was measured by a modified method using a commercially available kit (Lipase Kit S, Dainippon Pharmaceutical). The purities of test samples were confirmed by HPLC analysis (Figure S6 in Supplementary Materials). Cetilistat was used as a positive control at 0.1, 1.0, and 10 μM. Test sample was dissolved in EtOH–H2O (1:1) and diluted to concentrations of 0.45, 0.90, and 4.5 mM, respectively. Lipase (lipase from porcine pancreas, TYPE II, 100–500 units/mg) was purchased from Sigma-Aldrich. Briefly, test sample was mixed with enzyme buffer, and incubated for 5 min at 30 °C. After incubation, 2,3-dimercapto-1-propanol tributyrate (BALB) as substrate was added and the enzyme reaction was proceeded for 30 min at 30 °C. Lipase activity was determined by measuring the absorbance of the resulting 5-thio-2-nitrobenzoate anion at 412 nm using a microplate reader. The inhibition rate was calculated by the following formula: Inhibition rate (%) = [1 − (ΔAsample − ΔAblank)/(ΔAcontrol − ΔAblank)] × 100. The inhibitory concentration (IC50) was calculated by log-Probit analysis.
# ddY mice = assay: serum TG levels in intralipid (soybean oil)-loaded mice; assay type: in vivo; settings: for serum TG levels: 15 min before intralipid loading, 120 min after intralipid, mean ± S.E.M., n = 5
# Protocol: Male ddY mice, 5 weeks old, were purchased from Japan Laboratory Animals and maintained in the animal facility of the Tokyo University of Pharmacy and Life Sciences. The animals were housed in cages under controlled temperature (23 ± 2 °C) and a 12 h light-dark cycle. The mice were allowed free access to breeding food and water. All experiments were approved by the Tokyo University of Pharmacy and Life Sciences Animal Use Committee (approval number: P17-84, date of approval: 24 April 2017).
# After 5 weeks, mice were fasted overnight and randomly divided into five groups (n = 5). The body weight of each mouse was measured (24.0–30.7 g/body). 0.5% Carboxymethyl cellulose (CMC; Wako Pure Chemical Industries), cetilistat (Tokyo Kasei, purity > 98.0%; 180 mg/kg), or compound 6 (150 or 300 mg/kg) were prepared for test samples and the intralipid (soybean oil 20% emulsion, 20 mL/kg, Sigma-Aldrich) was used for the high-fat diet. Single dose of 0.5% CMC, cetilistat, and compound 6 (150 or 300 mg/kg) were orally administered to mice in each group (n = 5) 15 min before the intralipid loading. Blood samples were collected from the abdominal vena cava 120 min after the intralipid-loaded treatment and centrifuged (700× g for 10 min) to obtain serum samples. The TG levels in serum were measured using a commercially available kit (Wako Triglyceride E-Test kit, Wako Pure Chemical Industries).
# [2] = test system: cyclic adenosine monophosphatase (cAMP) phosphodiesterase; parameters: method as in PMID 8149459, doi:10.1246/cl.1992.1863; settings: cited from earlier work
# mice = test system: mice; parameters: method as in earlier work; settings: oral administration; cited from earlier work
# [3] = mean ± S.E.M. of three experiments in triplicate, tested at 0.45, 0.90, 4.5 mM
Compound,pancreatic lipase inhibitory activity (in words) [1],"IC50 [1, 3]",other results
"CC(C)=CCCC(C(=O)O)C1CCC2(C)C3CCC4C(C)(CCC(O)C4(C)C)C3=CCC12C (stereo not drawn) [3β-Hydroxylanosta 9,24-dien-21-oic acid]",,,pancreatic lipase inhibition (in words) (pancreatic lipase): inhibit the pancreatic lipase activity
"CCCCCCCCCCCCCCCCOc1nc2ccc(C)cc2c(=O)o1 [Cetilistat, reference compound]",,,"IC50 ([1]; positive control, tested at 0.1, 1.0, 10 μM, mean ± S.E.M.): 1.43 ± 0.052 µM; serum TG levels (ddY mice; 180 mg/kg oral): 130.2 ± 23.4 mg/dL"
"COC(=O)/C(C)=C/[C@H]1[C@H](OC)O[C@H]2C[C@@]3(C)C4=C(CC[C@]3(C)[C@@]2(O)[C@@H]1C)[C@@]1(C)CC[C@H](O[C@@H]2O[C@H](CO)[C@@H](O)[C@H](O)[C@H]2O[C@@H]2O[C@H](CO)[C@@H](O)[C@H](O)[C@H]2O[C@@H]2O[C@@H](C)[C@H](O)[C@@H](O)[C@H]2O)C(C)(C)[C@@H]1CC4 [Compound 2, 23α-methyl-peruvianoside A]",significant pancreatic lipase inhibitory activity in a concentration-dependent manner,840 ± 29 µM,
"COC(=O)/C(C)=C/[C@H]1[C@@H](OC)O[C@H]2C[C@@]3(C)C4=C(CC[C@]3(C)[C@@]2(O)[C@@H]1C)[C@@]1(C)CC[C@H](O[C@@H]2O[C@H](CO)[C@@H](O)[C@H](O)[C@H]2O[C@@H]2O[C@H](CO)[C@@H](O)[C@H](O)[C@H]2O[C@@H]2O[C@@H](C)[C@H](O)[C@@H](O)[C@H]2O)C(C)(C)[C@@H]1CC4 [Compound 3, 23β-methyl-peruvianoside A]",significant pancreatic lipase inhibitory activity in a concentration-dependent manner,590 ± 20 µM,
"COC(=O)/C(C)=C/[C@H]1[C@H](O)O[C@H]2C[C@@]3(C)C4=C(CC[C@]3(C)[C@@]2(O)[C@@H]1C)[C@@]1(C)CC[C@H](O[C@@H]2O[C@H](CO)[C@@H](O)[C@H](O)[C@H]2O[C@@H]2O[C@H](CO)[C@@H](O)[C@H](O)[C@H]2O[C@@H]2O[C@@H](C)[C@H](O)[C@@H](O)[C@H]2O)C(C)(C)[C@@H]1CC4 [Compound 4, peruvianoside A]",,1420 ± 40 µM,cAMP phosphodiesterase inhibitory activity (in words) [2]: show cyclic adenosine monophosphatase (cAMP) phosphodiesterase inhibitory activity
"COC(=O)/C(C)=C/[C@H]1[C@H](O)O[C@H]2C[C@@]3(C)C4=C(CC[C@]3(C)[C@@]2(O)[C@@H]1C)[C@@]1(C)CC[C@H](O[C@@H]2O[C@H](CO)[C@@H](O)[C@H](O)[C@H]2O[C@@H]2O[C@H](CO)[C@@H](O)[C@H](O)[C@H]2O[C@@H]2O[C@@H](C)[C@H](O)[C@@H](O)[C@H]2O)[C@](C)(CO)[C@@H]1CC4 [Compound 5, peruvianoside B]",,1400 ± 35 µM,
"CC1CC2(CC(C)C3(CCC4(C)C5=C(CCC43C)C3(C)CCC(OC4OC(COC6OCC(O)C(O)C6OC6OC(CO)C(O)C(O)C6OC6OC(C)C(O)C(O)C6O)C(O)C(O)C4O)C(C)(CO)C3CC5)O2)OC1=O [Compound 6, (23S,25R)-3β,31-dihydroxy-17α,23-epoxy-5α-lanost-8-en-23,26-olactone3β-O-[O-α-L-rhamnopyranosyl-(1→2)-O-β-D-gluco-pyranosyl-(1→2)-O-α-L-arabinopyranosyl-(1→6)-O-β-D-glucopyranoside]]",significant pancreatic lipase inhibitory activity in a concentration-dependent manner,810 ± 29 µM,"serum TG levels (ddY mice; 300 mg/kg single oral dose): 90.9 ± 16.2 mg/dL; effect on serum triglyceride levels (in words) (ddY mice; oral, 150 or 300 mg/kg, soybean oil-loaded mice): reduced serum triglyceride levels in a dose-dependent manner"
"CC1CC2(CC(C)C3(CCC4(C)C5=C(CCC43C)C3(C)CCC(OC4OC(COC6OCC(O)C(O)C6OC6OC(CO)C(O)C(O)C6OC6OC(C)C(O)C(O)C6O)C(O)C(O)C4O)C(CO)(CO)C3CC5)O2)OC1=O [Compound 7, (23S,25R)-3β,30,31-trihydroxy-17α,23-epoxy-5α-lanost-5-en-23,26-olactone3-O-[O-α-L-rhamno-pyranosyl-(1→2)-O-β-D-glucopyranosyl-(1→2)-O-α-L-arabinopyranosyl-(1→6)-O-β-D-glucopyranoside]]",,1100 ± 15 µM,
"CCC(=O)[C@@H]1C[C@@H](C)[C@]2(CC[C@@]3(C)C4=C(CC[C@@]32C)[C@@]2(C)CC[C@H](O[C@@H]3O[C@H](CO[C@@H]5OC[C@H](O)[C@H](O)[C@H]5O[C@@H]5O[C@H](CO)[C@@H](O)[C@H](O[C@@H]6O[C@H](CO)[C@@H](O)[C@H](O)[C@H]6O)[C@H]5O[C@@H]5O[C@@H](C)[C@H](O)[C@@H](O)[C@H]5O)[C@@H](O)[C@H](O)[C@H]3O)[C@](C)(CO)[C@@H]2CC4)O1 [Compound 9, 15-deoxy-eucosterol3β-[O-β-D-glucopyranosyl-(1→3)-O-[α-L-rhamnopyranosyl-(1→2)]-β-D-glucopyranosyl-(1→2)-O-α-L-arabinopyranosyl-(1→6)-O-β-D-glucopyranoside]]",,910 ± 23 µM,
"CCC(=O)[C@@H]1C[C@@H](C)[C@]2(CC[C@@]3(C)C4=C(CC[C@@]32C)[C@@]2(C)CC[C@H](O[C@@H]3O[C@H](CO[C@@H]5OC[C@H](O)[C@H](O)[C@H]5O[C@@H]5O[C@H](CO)[C@@H](O)[C@H](O[C@@H]6O[C@H](CO)[C@@H](O)[C@H](O)[C@H]6O)[C@H]5O[C@@H]5O[C@@H](C)[C@H](O)[C@@H](O)[C@H]5O)[C@@H](O)[C@H](O)[C@H]3O)C(CO)(CO)[C@@H]2CC4)O1 [Compound 10, 15-deoxy-30-hydroxyeucosterol3β-[O-β-D-glucopyranosyl-(1→3)-O-[α-L-rhamnopyranosyl-(1→2)]-β-D-glucopyranosyl-(1→2)-O-α-L-arabinopyranosyl-(1→6)-O-β-D-glucopyranoside]]",,1130 ± 62 µM,
"C[C@@H]1O[C@@H](O[C@H]2[C@H](O[C@H]3[C@H](OC[C@H]4O[C@@H](O[C@H]5CC[C@]6(C)C7=C(CC[C@H]6[C@@]5(C)CO)[C@]5(C)CC[C@@]6(OC(=O)C[C@H]6C)[C@@]5(C)CC7)[C@H](O)[C@@H](O)[C@@H]4O)OC[C@H](O)[C@@H]3O)O[C@H](CO)[C@@H](O)[C@@H]2O[C@@H]2O[C@H](CO)[C@@H](O)[C@H](O)[C@H]2O)[C@H](O)[C@H](O)[C@H]1O [Compound 11, scillanostaside G]",inhibited the pancreatic lipase activity in an inverted dose-dependent manner,> 4500 µM,
C=C1C(O)CCC2C1(C)CCC1C2(C)CCC2(C)C3C(C(C)C)CCC3(C)CCC12C (stereo not drawn) [cymbopogonol],,,effect on serum TG levels (in words) (mice): reduced serum TG levels in mice
scillasaponin B,,,cAMP phosphodiesterase inhibitory activity (in words) [2]: show cyclic adenosine monophosphatase (cAMP) phosphodiesterase inhibitory activity
